Consider 8 compounds from patent publication EP0938338B1, “CARRIER COMPOSITION FOR INFLUENCING THE TIGHT JUNCTION PERMEABILITY” (Ghyssaert, Joris Rosa Michael, priority 1996, dated 1998).

What is called solubility is the dissolved amount per volume that the medium holds. Lower therefore signals little dissolved substance.

Data set [1] deals with paracellular permeability. Description: 99mTc-EDTA transfer from ligated colon segment to kidneys/urine bladder (mucosal permeability). Conditions: for colonic permeability: 99mTc-EDTA in ligated colon segment, one hour, Fig. 2 / Fig. 3; for transfer from lumen to blood of 99mTc-EDTA: after previous administration of the uncoupler. In kind it is in vivo, Guinea pigs. As to the method: Guinea pigs of either sex (250-280 g) were fed for one week with pelleted food containing 0.1% 1,8 dihydroxyanthraquimone. For this purpose the necessary amount of Anthraquinone was solved in ether and sprayed over the pelleted foods. The ether was evaporated. The calculated daily administration of 1,8 dihydroxyantraquinone was 20 mg.
The animals were fasted 6 hours before the experiment in order to empty the proximal colonic segment.
Anaesthesia was induced by peritoneal injection of ethyl urethane (0.9 g.kg^-1) and body temperature was maintained at 37°C by a thermostatically controlled heated table.
A midventral abdominal incision was made and the large intestine exposed.
In this ligated colon segment 0.25 ml ^99mTcEDTA was injected. Immediately the abdominal cavity was closed.
The biodistribution of the labelled complex was visualised by a γ-camera Pho/GAMMA®HP-Nuclear; Chicago fitted with a low energy ([…]) convergating collimator.
After one hour the guinea pigs were killed with chloroform and both kidneys, the ligated colon segment and the liver were isolated. Urine was collected from the urine bladder using a syringe. The activity of the samples was measured by a Gamma-counter (Berthold, Gamma-sample changer BF 5300) positioned on 140 ± 10 keV.
In order to determine the influence of the salicylic acid and dinitrophenol on mucosal permeability, 0.25 ml of salicylic acid was injected in the ligated colon segment of untreated animals. After an exposure time of 30 minutes the labelled ^99mTc-EDTA-complex was injected. The procedure continued as described for 1,8 dihydroxyantraquinone.
The instant kit method of Eckelman and Richards (J. Nucl. Med. 11, 761(1970)) was modified. 5.0 mg of Na2EDTA and 0.5 mg of snCl2.2H20/ml was filtered through a 0.22 µ membrane filter and conserved in 3 ml vacuum serum tubes. The kits were kept at -20°C.
Prior to the experiment 1 ml sterile eluate of a ^99mTc-generator (Sterow™ 99m Byk-Malincrodt) with an activity of 2-10 µ Ci was added to the thawed kit. After mixing the efficiency of the complex formulation was assessed by paper chromatography (Whatman N° 1) using physiological water and methylethylketone as mobile phase. Detection was made with a Berthold Scanner. More than 98% of the present ^99mTc was complexed.
100 mg salicylic acid or dinitrophenol was solved in bidistilled water. Sodium hydroxide N was added until complete dissolution. pH was adjusted on 8.5. Water was added to a volume of 10 ml. Osmolarity was adjusted (275 mOsm/1) by adding 23 and 14 mg sodium chloride respectively.

In data set [2] the test system is blood glucose level. Description: Hollow suppositories with insulin, blood glucose versus intramuscular injection (set up 2). In kind it is in vivo, rabbits. The settings on record: uncoupler in suppository mass (3 mg, 3 mg, 1.5 mg); insulin in physiological saline.
Experimental: Therefore experiments were carried out on rabbits. Male rabbits were immobilised in a metal cage allowing free access to the anal region and the auricular arteries of both ears. In these experiments narcosis was not essential. The sampled blood volume was 0.5 ml.
Small hollow suppositories were made with dimensions ± 2 cm, φ 0.5 cm. The suppositories were filled with […] ™ (Novo Nordisk) 100 I.U./ml in the appropriate dilution with physiological saline. The anal region was secured with adhesive tape.
The following concentrations were used 0.1 I.U./kg body weight, 0.5 I.U./kg body weight, 1.0 I.U./kg body weight.
As the content of the suppository was approximately 0.6 ml, 450 µl (at the highest dose) of the Insulin solution was mixed with 150 µl normal saline.
For these experiments Insulin from bovine pancreas (activity 41.67 µg = 1 I.U.) Fluka was solved in 0.6 ml bidistilled water. The experiment was carried out as outlined above.
The subject of the next data set is colon descendens. Kind of data set: Temperature increase in ligated colon segment (sample versus reference segment). In kind it is in vivo, Guinea pigs. As to the method:
While animals are thermally unstable during narcosis special precautions had to be taken to overcome this problem. Guinea pigs (400 g, males) were fasted 12 hours before the experiment. Anaesthesia was induced by intraperitoneal injection of Ethylurethane (0.9 g.kg^-1). The guinea pig was fixed on a thermostated operation table, monitored by a thermosensible detector rectally applied. Heating was carried out by the operation table itself and two lamps located above the animal.
In the evacuated colon descendens two segments were localised. In both segments, later called sample- and reference segment small measuring electrodes were fixed, displaying continuously the absolute temperature until 0.001°C. Two other electrodes linked by a Wheatstone bridge connection were equally located in the two segments. They measure continuously the temperature difference between the two segments.
In both segments a smooth catheter (I.D. 0.3 mm) was fixed, winded several times in the intestinal cavity. In this catheters 100 µl of the reference- and sample solution was injected.
The intestinal cavity was sealed again. This set up enables the injection of solutes at body temperature. The animal was thermally isolated by gauge. After ten minutes, the wheatstone bridge was equilibrated. An injection of 100 µl air evacuates the catheters so injecting the solutions at perfect body temperature.
The electrodes displaying the absolute temperature were calibrated in a thermostatically controlled water bath between 36.0°C and 38.0°C. […] The electrodes measuring the temperature difference were calibrated by two thermostatically controlled water baths with temperature differences between 0.0°C and 2.0°C. The rectal temperature was directly monitored in °C.
• * reference solution: • Krebsolution - TRIS.HCl buffer 0.1 M pH 8.0 (9/1) osmotic pressure equals 0.9 % Sodium Chloride • * Sample solutions : • - Rhein saturated in reference solution.

The subject of data set [3] is blood glucose level. Description: Rectal perfusion of insulin, blood glucose versus intramuscular injection (set up 1). Conditions: uncoupler added to perfusion, total concentration 0.5 mg. It is filed as in vivo, guinea pigs and rats. How it is done: The resorption of Insulin has been monitored by the lowering of the blood glucose level versus an intramuscular injection of an equivalent dose. Glucose was monitored while the determination is simple and inexpensive. However, on several experiments the Insulin level was measured by RIA (Radio Immuno Assays) methods.
Initially the resorption of Insulin was monitored following a perfusion on anaesthetised animals. Anaesthesia was induced by abdominal injection of Ethylurethane (0.9 g/kg).
The circulating solution was principally isotonic Sodium chloride (physiological saline) to which the appropriate Insulin was added in order to obtain the required concentrations.
The used Insulin was […]™ (Novo Nordisk); Human Biosynthetic Insulin.
The perfusion itself was executed on a new developed manner in order to allow a perfusion without an operation. Blood was sampled on the jugular vein.
The device used allows an easy rectal application. It allows an exact positioning and an identical length of perfused colon.
The total circulating fluid was 8 ml. As tubing Isoversinic was used. At intervals 50 µl blood was sampled and used for the glucose determinations. These perfusion experiments were carried out on guinea pigs and rats. […]

For the next data set, the system named is paracellular route. Kind of data set: Blockade by TAP of the 1,8-dihydroxyanthraquinone-increased mucosal permeability (99mTc-EDTA). It is filed as in vivo, Guinea pigs. The settings on record: TAP 80 mM pH 6.0 followed by 99mTc-EDTA; Fig. 4; p < 0.01. How it is done:
2,4,6-Triaminopyrimidine (TAP) was used to block the paracellular way. If the resorption of a non resorbable molecule ^99mTc-EDTA complex was enhanced by the addition of a mitochondrial uncoupler and blocked by TAP, then the route followed by the ^99mTc-EDTA complex was unequivocally identified as the paracellular one.
The same materials and methods were used as described in Example 1. However, instead of ^99mc-EDTA TAP was used followed by ^99mTc-EDTA.
100 mg TAP was solved in bidistilled water. The pH was adjusted to 6.0 with HCl 2 N and completed to 10.0 ml. Final concentration was 80 mM. To obtain a physiological osmolarity 16 mg sodium chloride was added.

A further data set relates to isolated mitochondria. Kind of data set: Generation speed of ATP in isolated mitochondria (Luciferin-Luciferase). The settings on record: 20 µl Loperamide HCl (5 mg/80 ml water); increasing concentrations DHA; N=15; Fig. 8. In kind it is biochemical, Phaseolus aureus. As to the method:
Mitochondria were isolated from Phaseolus aureus. Beans were allowed to sprout at 28°C during 5 days in the dark. 40 g sprouts were used.
The plant material was homogenised at 3°C with a solution of 0.3M Mannitol, 1 mM Na2EDTA, 0.1% BSA, 0.05% Cysteine. The pH was adjusted to 7.2
During homogenisation 6 N KOH was added to keep the pH at 7.2.
The suspension was centrifuged at 2°C (2000 x g for 15 minutes). The pellet was removed and the supernatant centrifuged again during 20 minutes (8000 x g). The pellet was carefully resuspended in 1 ml of a solution (reaction medium) with 0.3M Mannitol, 10mM phosphate buffer, 10mM KCl, 5mM MgCl2, 0.1% BSA. The pH was adjusted at 7.2.
Mitochondrial quality was assessed by measuring the formation speed of ATP following a ADP injection. ATP was measured by L-Luciferin-Luciferase light emission in the LKB-Luminometer.
The measurement of ATP was carried out in a medium consisting of a 1/1 mixture of reaction medium and Luciferin-Luciferase buffer. The complex composition is : • 200 µl Luciferin-Luciferase solution • 400 µl TRIS.HCl 0.05 M - EDTA 2 mM pH 7.75 • 400 µl reaction medium as explained above • 20 µl mitochondrial suspension • 10 µl Succinate 10 mM pH 7.7 • 20 µl Loperamide HCl (5 mg/80 ml water) or water depending on the experimental set up 1,8 dihydroxyanthraquinone was used in a concentration of 2 mg/100 ml methanol.

Data set [4] concerns junctions of the colonic mucosa. Kind of data set: Blockade of the paracellular route by anti-diarrhoeal drugs (99mTc-EDTA transfer lumen to blood). In kind it is in vivo. The settings on record: in combination with DHA; Fig. 5.
The next data set relates to large intestine. Kind of data set: Colon perfusion: secretory effect of rhein (water, sodium, K+) and its antagonism. In kind it is in vivo.
Data set [5] has as its system monocellular mucosal layer of the guinea-pig colon. Description: ATP content of lyophilised colon mucosa (firefly bioluminescence). The settings on record: 3.76 mg rhein in ligated colonic segment. In kind it is in vivo, Guinea pigs. How it is done: The ATP content was measured in the monocellular mucosal layer of the guinea-pig colon.
Guinea pigs with a weight (mean ± 400 g) were fasted 12 hours before the experiments. Anaesthesia was induced by intraperitoneal injection of Ethylurethane (0.9 g.kg^-1).
The segment was filled with 4.0 ml of the solution to be tested. The intestinal cavity was immediately sealed again. After the experiment the colon segment was removed and submerged in liquid Nitrogen. The gut specimen was transferred to the precooled lyophylisator (-80°C, sample -20°C) and lyophilised during 36 hours. Microscopically, the mono cellular mucosa layer was scraped off. One segment, proceeding this way normally yield 1.5 - 2.0 mg lyophilised mucosa cells. 1.000 mg mucosa was weighted carefully on a microbalans and homogenised with 100.00 mg lactose. The ATP level was measured on 3.000 mg of this mixture.
ATP was measured following the firefly-bioluminescence system on a LKB Wallac 1250, fitted with a 1250 display. […]
For the blank experiment 200 µl Luciferine-Luciferase solution was mixed with 500 µl TRIS-EDTA buffer solution. The light emission was measured following the addition of standard amounts of ATP.
3.000 mg of the mucosa/lactose mixture was suspended in 800 µl TRIS-EDTA buffer solution. […] Known quantities of ATP were added.

A short description of data set [6]: Saturation concentration in reference solution. Conditions: krebs - tris.hcl buffer, pH 8, aqueous buffer.
Setting [7] is: 100 µl saturated solution in colon segment versus reference segment, Fig. 10.

Converted amounts (≈) assume the structure as drawn.

`O=C1c2cccc(O)c2C(=O)c2c(O)cccc21` [1,8-dihydroxyanthraquinone]: in data set [1], the colonic permeability result was “remarkable increase of colonic permeability” and the “transfer from lumen to blood of 99mTc-EDTA” value is “significantly enhanced”. Moreover, the “radioactivity leaked from the colon and concentrated in the urine bladder” value in [1] (one hour after administration of the radioactive complex, 0.1% in food for one week) is around 25%. The “blood glucose fall, of the effect obtained after intramuscular injection of an identical dose” value (“blood glucose fall” below) in the data set on blood glucose level [2] is given as around 50%. This compound returned a temperature rise with colon descendens (setting [7]) of 0.70 °C.

With `COc1ccc2c(c1)c(CC(=O)O)c(C)n2C(=O)c1ccc(Cl)cc1` [Indomethacin], the “blood glucose fall” value with blood glucose level [2] is recorded as around 50%. In addition, the “Insulin absorption, of the effect obtained after an intramuscular injection” value with blood glucose level [3] was around 44%.

For `Nc1cc(N)nc(N)n1` [TAP, 2,4,6-Triaminopyrimidine], the “mucosal permeability following a 1,8-dihydroxyanthraquinone administration” value with paracellular route is “nearly completely restored”.

With `CN(C)C(=O)C(CCN1CCC(O)(c2ccc(Cl)cc2)CC1)(c1ccccc1)c1ccccc1` [loperamide], the “protection against uncoupling effect of DHA on generation speed of ATP” value in the data set with isolated mitochondria was “protects mitochondria in vitro against the uncoupling effect of anthraquinones”. In [4], the “transfer of 99mTc-EDTA complex from lumen to blood” value is on record as “no longer transferred from lumen to blood”. The “effect on temperature rise following DHA administration” value with colon descendens (guinea pig, in vivo) is “antagonises the temperature rise”.

In the case of `CN1CC[C@]23c4c5ccc(O)c4O[C@H]2[C@@H](O)C=C[C@H]3[C@H]1C5` [morphine], in the data set on large intestine (in vivo), the “K+ concentration” value is listed as “completely antagonised”; the “effect on the secretory effect of rhein” value is listed as “counteracted the secretory effect of rhein”; the “effect on the secretory effect of rhein, prior perfusion” value is given as “protects the large intestine from the secretory effect of rhein”.

`O=C(O)c1cc(O)c2c(c1)C(=O)c1cccc(O)c1C2=O` [rhein]: in the data set with blood glucose level [2], the “blood glucose fall” value is given as around 50%. Also, the “initial ATP concentration recovered” value in data set [5] (after 60 minutes) is recorded as 67.1%. In addition, in data set [5] (after 90 minutes), the “initial ATP concentration remaining” value was 35.9%. The “Insulin absorption, of the effect obtained after an intramuscular injection” value in the data set on blood glucose level [3] is recorded as around 44%. This compound returned a solubility in data set [6] of 0.952 µg/mL (≈ 3.35 µM). For the same compound, in the data set on colon descendens (setting [7]), the temperature rise amounted to 0.36 °C.

Take `O=C(O)c1ccccc1O` [salicylic acid]: in data set [1], the colonic permeability result is reported as “similar, although less pronounced effect” and the “transfer from lumen to blood of 99mTc-EDTA” value is “significantly enhanced”. In addition, in the data set with colon descendens (other tested mitochondrial uncouplers), the “temperature rise” value was “show the same results”.

On to trigalloylglucose, for which the “effect on the secretory effect of rhein” value in the data set with large intestine (perfused after rhein or together with rhein, Fig. 6, Fig. 7) is “inhibit completely the secretory effect of rhein”.
